Results as given in publication PMC10792358 (Clinical Cancer Research, 2023).

What was measured:
[1] = Plasma pharmacokinetics; conditions: data not shown
[2] = system: HR+/HER2− breast cancer with PIK3CA mutations; conditions: patients with PIK3CA mutations, few treated with CDK4/6i; cited from earlier work

C[C@]12CC[C@@H]3c4ccc(O)cc4C[C@@H](CCCCCCCCC[S+]([O-])CCCC(F)(F)C(F)(F)F)[C@H]3[C@@H]1CC[C@@H]2O (stereo partly drawn) [fulvestrant]
effect of molibresib on fulvestrant pharmacokinetics ([1]; fulvestrant predose concentrations): lack of effect | predose concentrations ([1]; fulvestrant with molibresib, compared with ref 18): within the range anticipated | ORR [2]: 12.8%
